This passage reports RP-LC retention time results from the METLIN SMRT retention time set (Domingo-Almenara et al. 2019).

This data set in a line: gradient 5% acetonitrile 3 min, to 50% in 2 min, to 85% in 15 min, held 3 min, 100 µL/min. Conditions: column: Zorbax Extend-C18 2.1 x 50 mm; eluents: water / acetonitrile, 0.1% formic acid. In outline: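 Over 3 months, pure standards in mixtures of ~100 molecules were run by HPLC coupled to a quadrupole time-of-flight mass spectrometer in positive and negative ionization mode. The column was a Zorbax Extend-C18 (2.1 × 50 mm, 1.8 μm) at 100 μL/min, eluted with water and acetonitrile each holding 0.1% formic acid, with 40 μL dead and 900 μL dwell volumes. Retention time was determined from adduct peaks chosen by software and checked manually.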
As to `O=C(NCc1csc(-c2cccs2)n1)C1CCN(C(=O)COc2ccccc2)CC1`, the RP-LC retention time amounted to 770 s.

In the case of `COc1ccc(Cl)cc1NC(=O)Cc1csc2nc(-c3ccc(C)c(C)c3)cn12`, the RP-LC retention time came out at 985 s. For `COc1cccc(CNC(=O)N2CCc3nc(-c4ccccc4)sc3C2)c1`, the RP-LC retention time is 891 s. For the molecule `CCC(=O)N1CCc2c(C(=O)N3CCN(c4ccccn4)CC3)cccc21`, the RP-LC retention time was 589 s. The molecule `COc1cccc(NC(=O)c2cc3c(s2)CN(C2CC2)C3)c1` gave an RP-LC retention time of 760 s. The result for `COCCn1c(CCCC(=O)N2CCN(c3ccccn3)CC2)nc2cccnc21` reads 562 s.

For the molecule `Cc1cc(=O)n(CC(=O)Nc2ccccc2C)c(N2CCOCC2)n1`, the RP-LC retention time was 657 s. The result for `CCOC(=O)c1c(C)oc2nc(C)nc(NCCc3ccc(OCC)cc3)c12` reads 1270 s; that for `Cc1ccc(C)c(NC(=O)C2CCCN(S(=O)(=O)c3cn(C(C)C)cn3)C2)c1` (stereo not given), 781 s.

As for `COc1cccc(NC(=O)Cn2nc3c(Oc4ccccc4Cl)nccn3c2=O)c1`, the RP-LC retention time is 865 s. The value for `CCCn1ccc2oc(C)c(C(=O)NCc3cc(F)ccc3F)c2c1=O` was 1040 s; that for `CCn1cnc2ccc(-c3noc(CCc4c[nH]c5ccccc45)n3)cc21` was 735 s; that for `O=C(CN1c2ccc(F)cc2-c2ccccc2S1(=O)=O)Nc1cccnc1` was 681 s. Molecule `Cc1ccc(NC(=O)Cn2c(C)nc3c(sc4nc(-c5ccccc5)ccc43)c2=O)cc1Cl` registered an RP-LC retention time of 1030 s. The value for `Cc1ccc(CNC(=O)C2CCN(S(=O)(=O)c3cc(-c4noc(C5CC5)n4)cs3)CC2)cc1` was 998 s.
